Source: patent US20230074558A1, “DIMERIC COMPOUNDS AS STING AGONISTS” (Mersana Therapeutics, Inc., priority 2019, published 2023)

Assays:
Assay type in all cases: cell-based
[1] = biological target: T1, human STING (homozygous HAQ allele) (Homo sapiens, UniProt Q86WV6, G230A/H232R/R293Q/R71H); test: Activation of human STING signaling in THP1-Dual Human Monocytes cells, IRF3 luciferase reporter induction; details: 24 hours incubation
T1 construct: THP1-Dual™ Human Monocytes cells with the homozygous HAQ allele, known to be a natural variant allele of STING; host or cells: THP1-Dual human monocytes
T1 sequence (Q86WV6 whole entry R71H/G230A/H232R/R293Q): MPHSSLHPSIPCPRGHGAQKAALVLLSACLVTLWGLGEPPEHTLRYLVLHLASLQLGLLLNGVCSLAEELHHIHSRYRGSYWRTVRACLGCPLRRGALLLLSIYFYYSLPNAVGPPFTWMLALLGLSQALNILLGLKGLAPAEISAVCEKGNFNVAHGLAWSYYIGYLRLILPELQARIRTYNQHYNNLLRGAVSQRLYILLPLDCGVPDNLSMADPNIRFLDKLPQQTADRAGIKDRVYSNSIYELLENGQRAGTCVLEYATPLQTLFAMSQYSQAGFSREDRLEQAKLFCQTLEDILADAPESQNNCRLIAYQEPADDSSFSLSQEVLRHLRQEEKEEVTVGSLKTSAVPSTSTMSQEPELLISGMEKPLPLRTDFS
Experimental: (§1) THP1-Dual™ Human Monocytes cells with the homozygous HAQ allele, known to be a natural variant allele of STING occurring in ˜20% of the human population (Invivogen) have been engineered with two independent gene reporter systems: a secreted embryonic alkaline phosphatase (SEAP) reporter gene for NFkB activity, and secreted luciferase reporter for […] (IRF3) activity were used. 4×10^5 THP1-Dual™ cells were incubated with test Compounds in a 5-fold titration steps from 1 to 0.0128 μM in RPMI media with 10% FBS, for 24 hours at 37° C. with 5% CO2. Cell culture supernatants (20 μl) from each incubated sample was added to resuspended QUANTI-Blue™ Solution (Invivogen, 180 μl) in each well of a flat-bottom 96-well plate, then incubated for 2 h. NFkB levels were evaluated using a spectrophotometer at 620-655 nm.
(§2) To evaluate IRF3 reporter levels, cell culture supernatant (20 μl) from each incubated sample was added to QUANTI-Luc™ assay solution (Invivogen, 50 μl), and the luminescence was measured with a SpectraMax M3 spectrophotometer (Molecular Devices).
(§3) The EC50 value was determined from the dose response curve based on reference Compounds. Table A provides the results for IRF3 reporter induction THP1-Dual™ Human Monocytes cells and Table B provides the results for IRF3 reporter induction in THP1-Dual™ KI-hSTING-R232 Cells (“A” means <1 μM; “B” means ≥1 μM and <10 μM; “C” means ≥10 μM).

R232 hSTING variant = biological target: T2, R232 hSTING variant (Homo sapiens, UniProt Q86WV6, H232R); test: IRF3 reporter induction in THP1-Dual KI-hSTING-R232 Cells; details: THP1-Dual KI-hSTING-R232 Cells (R232 haplotype)
T2 construct: host or cells: THP1-Dual KO-STING cells (knock-in: THP1-Dual KI-hSTING-R232)
T2 sequence (Q86WV6 whole entry H232R): as the sequence (Q86WV6 whole entry R71H/G230A/H232R/R293Q) above, with H71R, A230G, Q293R counted along it
Experimental: as §1, §2
NFkB and IRF3 reporter levels were also determined for THP1-Dual™ KI-hSTING-H232 Cells and THP1-Dual™ KI-hSTING-R232 Cells. THP1-Dual™ KI-hSTING-H232 Cells (R232H Haplotype) were generated from THP1-Dual™ KO-STING cells by knockin of the intronless coding sequence (from the ATG to TGA) of the R232H human STING variant (Invivogen). R232H has been identified as a natural variant allele of STING occurring in ˜14% of the human population. THP1-Dual™ KI-hSTING-R232 Cells (R232 Haplotype) were generated from THP1-Dual™ KO-STING cells by knockin of the intronless coding sequence (from the ATG to the TGA) of the R232 hSTING variant. Genomic studies indicate that this variant, which contains an arginine at position 232 (R232), is the most prevalent variant with an occurrence (homozygous allele) of ˜45-58% in the human population.
as §3

human STING = biological target: T3, human STING (Homo sapiens, UniProt Q86WV6, G230A/H232R/R293Q/R71H); test: Activation of human STING signaling in permeabilized THP1-Dual cells, IRF3 induction; details: digitonin-permeabilized THP1-Dual cells, 30 minutes on ice then 24 h
T3 construct: host or cells: THP1-Dual cells, digitonin-permeabilized
T3 sequence (Q86WV6 whole entry R71H/G230A/H232R/R293Q): as the sequence (Q86WV6 whole entry R71H/G230A/H232R/R293Q) above
Experimental: 4×10^5 THP1-Dual™ cells (NF-κB-SEAP and IRF-Lucia luciferase Reporter Monocytes, Invivogen) were incubated with test Compounds in a 5-fold titration steps from […] in permeabilized buffer (50 mM HEPES pH 7.0, 100 mM KCl, 3 mM MgCl2, 85 mM sucrose, 0.2% BSA, 1 mM ATP, 0.1 mM GTP, 0.1 mM TTP, […]) for 30 minutes on ice. Cells were then washed and incubated in a fresh RPMI media with 10% FBS at 37° C. with 5% CO2 for 24 h. Cell culture supernatants from each sample were collected and NFkB and IRF3 were evaluated as above. Table B provides the results for IRF3 induction (“A” means <1 μM; “B” means ≥1 μM and <10 μM; “C” means ≥10 μM).

COc1cc2sc(C(=O)CCC(=O)O)cc2c(F)c1OCC(=CCO)COc1c(OC)cc2sc(C(=O)CCC(=O)O)cc2c1F [Compound 210, 4,4′-(((2-(2-hydroxyethylidene)propane-1,3-diyl)bis(oxy))bis(4-fluoro-6-methoxybenzo[b]thiophene-5,2-diyl))bis(4-oxobutanoic acid)]
EC50 [1]: < 1 µM | EC50 (R232 hSTING variant): < 1 µM

C=C(COc1cc2cc(C(=O)CCC(=O)O)sc2cc1OC)COc1cc2cc(C(=O)CCC(=O)O)sc2cc1OC [Compound 40, 4,4′-(((2-methylenepropane-1,3-diyl)bis(oxy))bis(6-methoxybenzo[b]-thiophene-5,2-diyl))bis(4-oxobutanoic acid)]
EC50 [1]: < 1 µM | EC50 (R232 hSTING variant): ≥ 10 µM

COc1cc2sc(C(=O)CCC(=O)O)cc2cc1NC(=O)C1(C(=O)Nc2cc3cc(C(=O)CCC(=O)O)sc3cc2OC)CCC1 [Compound 223]
EC50 [1]: ≥ 10 µM | EC50 (R232 hSTING variant): ≥ 10 µM

COc1cc2sc(C(=O)CCC(=O)O)cc2c(F)c1OCC(=CC(=O)F)COc1c(OC)cc2sc(C(=O)CCC(=O)O)cc2c1F [Compound 208]
EC50 [1]: ≥ 10 µM | EC50 (R232 hSTING variant): ≥ 10 µM

O=C(O)CCC(=O)c1nc2ccc(NC(=O)COc3ccc4nc(C(=O)CCC(=O)O)sc4c3)cc2s1 [Compound 18]
EC50 [1]: < 1 µM

O=C(O)CCC(=O)c1nc2ccc(-c3ccccc3-c3ccc4nc(C(=O)CCC(=O)O)sc4c3)cc2s1 [Compound 9, 4,4′-(1,2-phenylenebis(benzo[d]thiazole-6,2-diyl))bis(4-oxobutanoic acid)]
EC50 [1]: ≥ 10 µM | EC50 (human STING): ≥ 10 µM

COc1cc2sc(C(=O)CCC(=O)O)cc2c(F)c1OCC#CCOc1c(OC)cc2sc(C(=O)CCC(=O)O)cc2c1F [Compound 227]
EC50 [1]: ≥ 10 µM | EC50 (R232 hSTING variant): ≥ 10 µM

COc1cc2sc(C(=O)CCC(=O)O)cc2cc1NC(=O)C1CCN(c2cc3cc(C(=O)CCC(=O)O)sc3cc2OC)C1=O (stereo not shown) [Compound 221]
EC50 [1]: ≥ 10 µM | EC50 (R232 hSTING variant): ≥ 10 µM

C=C(COc1c(OC)cc2sc(C(=O)CCC(=O)OC)nc2c1F)COc1c(OC)cc2sc(C(=O)CCC(=O)OC)nc2c1F [compound 264]
EC50 [1]: < 1 µM | EC50 (R232 hSTING variant): ≥ 10 µM

COc1cc2sc(C(=O)CCC(=O)O)cc2c(F)c1OCC(=CC(=O)OC(C)(C)C)COc1c(OC)cc2sc(C(=O)CCC(=O)O)cc2c1F [Compound 209]
EC50 [1]: ≥ 10 µM | EC50 (R232 hSTING variant): ≥ 10 µM

COc1cc2sc(C(=O)CCC(=O)O)cc2cc1NC(=O)CCOc1c(OC)cc2sc(C(=O)CCC(=O)O)cc2c1F [Compound 206]
EC50 [1]: ≥ 10 µM | EC50 (R232 hSTING variant): < 1 µM

COc1cc2sc(C(=O)CCC(=O)O)cc2cc1CCCC(=O)Nc1cc2cc(C(=O)CCC(=O)O)sc2cc1OC [Compound 220]
EC50 [1]: ≥ 10 µM | EC50 (R232 hSTING variant): ≥ 10 µM

COc1cc2sc(C(=O)CCC(=O)O)cc2cc1NCCC(=O)Nc1cc2cc(C(=O)CCC(=O)O)sc2cc1OC [Compound 226]
EC50 [1]: ≥ 10 µM | EC50 (R232 hSTING variant): ≥ 10 µM

COc1cc2sc(C(=O)CCC(=O)O)cc2c(F)c1OC/C=C/COc1c(OC)cc2sc(C(=O)CCC(=O)O)cc2c1F [Compound 203, (E)-4,4′-((but-2-ene-1,4-diylbis(oxy))bis(4-fluoro-6-methoxybenzo[b]thiophene-5,2-diyl))bis(4-oxobutanoic acid)]
EC50 [1]: < 1 µM | EC50 (R232 hSTING variant): 1 to 10 µM

COc1cc2sc(C(=O)CCC(=O)O)cc2cc1NC(=O)COc1c(OC)cc2sc(C(=O)CCC(=O)O)cc2c1F [Compound 222]
EC50 [1]: ≥ 10 µM | EC50 (R232 hSTING variant): ≥ 10 µM

O=C(O)CCC(=O)c1cc2ccc(CNC(=S)NCc3ccc4cc(C(=O)CCC(=O)O)sc4c3)cc2s1 [Compound 48, 4,4′-(((thiocarbonylbis(azanediyl))bis(methylene))bis(benzo[b]thiophene-6,2-diyl))bis(4-oxobutanoic acid)]
EC50 [1]: ≥ 10 µM | EC50 (human STING): ≥ 10 µM

COc1cc2sc(C(=O)CCC(=O)O)cc2cc1NC(=O)C1(C(=O)Nc2cc3cc(C(=O)CCC(=O)O)sc3cc2OC)CC1 [Compound 205]
EC50 [1]: ≥ 10 µM | EC50 (R232 hSTING variant): ≥ 10 µM

COc1cc2sc(C(=O)CCC(=O)O)cc2c(F)c1OCc1ccccc1COc1c(OC)cc2sc(C(=O)CCC(=O)O)cc2c1F [Compound 211, 4,4′-(((1,2-phenylenebis(methylene))bis(oxy))bis(4-fluoro-6-methoxybenzo[b]thiophene-5,2-diyl))bis(4-oxobutanoic acid)]
EC50 [1]: < 1 µM | EC50 (R232 hSTING variant): < 1 µM

O=C(O)CCC(=O)c1cc2ccc(/C=C\c3ccc4cc(C(=O)CCC(=O)O)sc4c3)cc2s1 [Compound 36, (Z)-4,4′-(ethene-1,2-diylbis(benzo[b]thiophene-6,2-diyl))bis(4-oxobutanoic acid)]
EC50 [1]: ≥ 10 µM | EC50 (human STING): ≥ 10 µM

COc1cc2sc(C(=O)CCC(=O)O)cc2cc1NC(=O)C1(C(=O)Nc2cc3cc(C(=O)CCC(=O)O)sc3cc2OC)CCOCC1 [Compound 218]
EC50 [1]: ≥ 10 µM | EC50 (R232 hSTING variant): ≥ 10 µM

COc1cc2sc(C(=O)CCC(=O)O)cc2c(F)c1OC/C=C\COc1c(OC)cc2sc(C(=O)CCC(=O)O)cc2c1F [Compound 204, (Z)-4,4′-((but-2-ene-1,4-diylbis(oxy))bis(4-fluoro-6-methoxybenzo[b]-thiophene-5,2-diyl))bis(4-oxobutanoic acid)]
EC50 [1]: < 1 µM | EC50 (R232 hSTING variant): < 1 µM

COc1cc2sc(C(=O)CCC(=O)O)cc2cc1NC(=O)CC(=O)Nc1cc2cc(C(=O)CCC(=O)O)sc2cc1OC [Compound 224]
EC50 [1]: ≥ 10 µM | EC50 (R232 hSTING variant): ≥ 10 µM

COc1cc2sc(C(=O)CCC(=O)O)cc2cc1CCC(=O)Nc1cc2cc(C(=O)CCC(=O)O)sc2cc1OC [Compound 219]
EC50 [1]: ≥ 10 µM | EC50 (R232 hSTING variant): ≥ 10 µM

COC(=O)CCC(=O)c1cc2c(F)c(OCC3(COc4c(OC)cc5sc(C(=O)CCC(=O)OC)cc5c4F)COC3)c(OC)cc2s1 [Compound 262]
EC50 [1]: ≥ 10 µM

O=C(O)CCC(=O)c1nc2ccc(/C=C\c3ccc4nc(C(=O)CCC(=O)O)sc4c3)cc2s1 [Compound 6, (Z)-4,4′-(ethene-1,2-diylbis(benzo[d]thiazole-6,2-diyl))bis(4-oxobutanoic acid)]
EC50 [1]: ≥ 10 µM | EC50 (human STING): ≥ 10 µM

C=C(COc1c(OC)cc2sc(C(=O)CCC(=O)O)cc2c1F)COc1c(OC)cc2sc(C(=O)CCC(=O)O)cc2c1F [Compound 202, 4,4′-(((2-methylenepropane-1,3-diyl)bis(oxy))bis(4-fluoro-6-methoxybenzo[b]-thiophene-5,2-diyl))bis(4-oxobutanoic acid)]
EC50 [1]: < 1 µM | EC50 (R232 hSTING variant): < 1 µM

O=C(O)CCC(=O)c1cc2ccc(-c3ccccc3-c3ccc4cc(C(=O)CCC(=O)O)sc4c3)cc2s1 [Compound 30, 4,4′-(1,2-phenylenebis(benzo[b]thiophene-6,2-diyl))bis(4-oxobutanoic acid)]
EC50 [1]: 1 to 10 µM | EC50 (human STING): 1 to 10 µM

O=C(O)CCC(=O)c1cc2ccc(NC(=O)Nc3ccc4cc(C(=O)CCC(=O)O)sc4c3)cc2s1 [Compound 25, 4,4′-((carbonylbis(azanediyl))bis(benzo[b]thiophene-6,2-diyl))bis(4-oxobutanoic acid)]
EC50 [1]: ≥ 10 µM | EC50 (human STING): ≥ 10 µM

C=C(COc1cc2cc(C(=O)CCC(=O)O)sc2cc1OC)COc1c(OC)cc2sc(C(=O)CCC(=O)O)cc2c1F [Compound 207, 4-(5-((2-(((2-(3-carboxypropanoyl)-4-fluoro-6-methoxybenzo[b]thiophen-5-yl)oxy)methyl)allyl)oxy)-6-methoxybenzo[b]thiophen-2-yl)-4-oxobutanoic acid]
EC50 [1]: < 1 µM | EC50 (R232 hSTING variant): < 1 µM

COc1cc2sc(C(=O)CCC(=O)O)cc2cc1/C=C/C(=O)Nc1cc2cc(C(=O)CCC(=O)O)sc2cc1OC [Compound 229]
EC50 [1]: ≥ 10 µM | EC50 (R232 hSTING variant): ≥ 10 µM
